Laboratory results as given in BigSolDB 2.1.

Nc1cccc2ccncc12
solubility (mole fraction)
Details | in DMF | in acetone | in acetonitrile | in ethanol | in ethylene glycol | in isopropanol | in methanol | in n-propanol | in propylene glycol | in water
278.15 K | 0.00564 | 0.00309 | 0.00458 | 0.00135 | 0.000113 | 0.00283 | 0.000354 | 0.00359 | 0.000176 | 3.46e-05
283.15 K | 0.00693 | 0.00371 | 0.00539 | 0.00161 | 0.000132 | 0.00344 | 0.000411 | 0.0042 | 0.000211 | 4e-05
288.15 K | 0.00832 | 0.00439 | 0.00651 | 0.00191 | 0.000156 | 0.00401 | 0.000483 | 0.00497 | 0.000254 | 4.6e-05
293.15 K | 0.01 | 0.00532 | 0.00789 | 0.0022 | 0.000183 | 0.00477 | 0.000559 | 0.00593 | 0.000304 | 5.45e-05
298.15 K | 0.0119 | 0.00636 | 0.00939 | 0.00261 | 0.00022 | 0.00566 | 0.000664 | 0.007 | 0.000366 | 6.21e-05
303.15 K | 0.0141 | 0.00752 | 0.0111 | 0.00308 | 0.000261 | 0.00664 | 0.000773 | 0.00831 | 0.000433 | 7.2e-05
308.15 K | 0.0167 | 0.00896 | 0.0131 | 0.00365 | 0.000313 | 0.00784 | 0.000919 | 0.00984 | 0.000516 | 8.42e-05
313.15 K | 0.0196 | 0.0105 | 0.0156 | 0.0043 | 0.000367 | 0.00934 | 0.00107 | 0.0115 | 0.000608 | 9.8e-05
318.15 K | 0.023 | 0.0122 | 0.0182 | 0.00508 | 0.000429 | 0.0109 | 0.00128 | 0.0135 | 0.000718 | 0.000113
323.15 K | 0.0267 | 0.0143 | 0.0219 | 0.00602 | 0.000505 | 0.0128 | 0.00151 | 0.0158 | 0.00085 | 0.000132
